The values that follow come from PubChem BioAssay AID1963980 (Molecular Pharmacology Branch, DTP, NCI, 2024).

In this assay the test system is 475296-252-R-J1-PDC spheroid viability. Description: Anticancer human tumor 475296-252-R-J1-PDC patient-derived rectal carcinoma cell line growth inhibition [PI3K]. Conditions: spheroids with HUVEC and MSC; for viability, T/C: stronger effect = lower value. Summed up:
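Spheroid viability read-out. Co-cultures contained the tumor line plus HUVEC and human MSCs. Each agent was paired with a PI3K inhibitor (inavolisib, alpelisib, duvelisib, copanlisib) across half-log dilutions starting at clinical Cmax, or at 10 microM when Cmax was unknown.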

[1] abbreviates: curve of first compound, second compound 0.00316 µM.
Where [2] appears, read: curve of first compound, second compound 0.01 µM.
Setting [3] is: curve of first compound, second compound 0.0316 µM.
The mark [4] stands for this setting: curve of first compound, second compound 0.1 µM.
Where [5] appears, read: curve of first compound, second compound 0.316 µM.
[6] abbreviates: curve of first compound, second compound 1 µM.
The mark [7] stands for this setting: second compound 0.00316 µM, first compound 0.0316 µM.
Setting [8] is: second compound 0.00316 µM, first compound 0.1 µM.
Setting [9] is: second compound 0.00316 µM, first compound 0.316 µM.
Where [10] appears, read: second compound 0.00316 µM, first compound 1 µM.
The mark [11] stands for this setting: second compound 0.00316 µM, first compound 3.16 µM.
[12] abbreviates: second compound 0.00316 µM, first compound 10 µM.
The mark [13] stands for this setting: second compound 0.01 µM, first compound 0.0316 µM.
Where [14] appears, read: second compound 0.01 µM, first compound 0.1 µM.
Where [15] appears, read: second compound 0.01 µM, first compound 0.316 µM.
The mark [16] stands for this setting: second compound 0.01 µM, first compound 1 µM.
Where [17] appears, read: second compound 0.01 µM, first compound 3.16 µM.
[18] abbreviates: second compound 0.01 µM, first compound 10 µM.
Setting [19] is: second compound 0.0316 µM, first compound 0.0316 µM.
Setting [20] is: second compound 0.0316 µM, first compound 0.1 µM.
[21] abbreviates: second compound 0.0316 µM, first compound 0.316 µM.
[22] abbreviates: second compound 0.0316 µM, first compound 1 µM.
The mark [23] stands for this setting: second compound 0.0316 µM, first compound 3.16 µM.
The mark [24] stands for this setting: second compound 0.0316 µM, first compound 10 µM.
Where [25] appears, read: second compound 0.1 µM, first compound 0.0316 µM.
[26] abbreviates: second compound 0.1 µM, first compound 0.1 µM.
[27] abbreviates: second compound 0.1 µM, first compound 0.316 µM.
[28] abbreviates: second compound 0.1 µM, first compound 1 µM.
Setting [29] is: second compound 0.1 µM, first compound 3.16 µM.
The mark [30] stands for this setting: second compound 0.1 µM, first compound 10 µM.
The mark [31] stands for this setting: second compound 0.316 µM, first compound 0.0316 µM.
Setting [32] is: second compound 0.316 µM, first compound 0.1 µM.
Setting [33] is: second compound 0.316 µM, first compound 0.316 µM.
Where [34] appears, read: second compound 0.316 µM, first compound 1 µM.
The mark [35] stands for this setting: second compound 0.316 µM, first compound 3.16 µM.
[36] abbreviates: second compound 0.316 µM, first compound 10 µM.
Where [37] appears, read: second compound 1 µM, first compound 0.0316 µM.
The mark [38] stands for this setting: second compound 1 µM, first compound 0.1 µM.
[39] abbreviates: second compound 1 µM, first compound 0.316 µM.
Where [40] appears, read: second compound 1 µM, first compound 1 µM.
The mark [41] stands for this setting: second compound 1 µM, first compound 3.16 µM.
Setting [42] is: second compound 1 µM, first compound 10 µM.

“And” between values parts separate entries of the source, which are not always exact repeats. Equal entries are not always repeated.
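Also: spheroids exposed to agents for seven days before readout.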

In the case of `CNC(=O)c1ccc(N2C(=S)N(c3ccc(C#N)c(C(F)(F)F)c3)C(=O)C2(C)C)cc1F`, the viability, T/C (in general, the result in the treated group divided by that in the control group, in per cent) by setting is: (compound 0.1 µM) 100% [middle of 4 runs]; (compound 0.316 µM) 96.5% [middle of 4 runs]; (compound 1 µM) 99.5% [middle of 4 runs]; (compound 3.16 µM) 102% [middle of 4 runs]; (compound 10 µM) 98.3% [middle of 4 runs]. Also, for the setting “curve of compound”, the IC50 (as a rule, the point on the concentration scale where inhibition reaches its midpoint) was greater than 10 µM.
Take `CC(Cn1ccc(-c2ccc(C#N)c(Cl)c2)n1)NC(=O)c1cc(C(C)O)[nH]n1` (centres undefined): the viability, T/C reads like this: (compound 0.0316 µM) 105% [middle of 4 runs]; (compound 0.1 µM) 96.9% [middle of 4 runs]; (compound 0.316 µM) 99% (2×) and 93.4% and 120%; (compound 1 µM) 105% [middle of 4 runs]; (compound 3.16 µM) 101% [middle of 4 runs]; (compound 10 µM) 105% [middle of 4 runs]. Also, for the setting “curve of compound”, the half-maximal inhibitory concentration (IC50) is greater than 10 µM.
Turning to `C=CC(=O)N1CCN(c2nc(=O)n(-c3c(C)ccnc3C(C)C)c3nc(-c4c(O)cccc4F)c(F)cc23)C(C)C1` (centres undefined) + COc1c(OCCCN2CCOCC2)ccc2c3n(c(=NC(=O)c4cnc(N)nc4)nc12)CCN3, the IC50 runs as follows: under setting [1], greater than 10 µM; under setting [2], greater than 10 µM; under setting [3], greater than 10 µM; under setting [4], greater than 10 µM; under setting [5], greater than 10 µM; under setting [6], greater than 10 µM. Moreover, the viability, T/C reads like this: under setting [7], 102%; under setting [8], 101%; under setting [9], 101%; under setting [10], 99.4%; under setting [11], 110%; under setting [12], 106%. The viability, T/C runs as follows: under setting [13], 94.3%; under setting [14], 99.2%; under setting [15], 93.8%; under setting [16], 105%; under setting [17], 106%; under setting [18], 98.1%. For the same molecule, the viability, T/C is, setting by setting: under setting [19], 94.4%; under setting [20], 91.1%; under setting [21], 91.2%; under setting [22], 98.7%; under setting [23], 91.4%; under setting [24], 108%. The viability, T/C is 91.6% under setting [25]; 85.5% under setting [26]; 84% under setting [27]; 97.8% under setting [28]; 86% under setting [29]; 87.1% under setting [30]. Moreover, the viability, T/C under setting [31] was 75.7%; the viability, T/C under setting [32] is 78.3%; the viability, T/C under setting [33] was 64.9%; the viability, T/C under setting [34] is 83.6%; the viability, T/C under setting [35] is 77.5%; the viability, T/C under setting [36] was 81%. Also, the viability, T/C under setting [37] was 58.2%; the viability, T/C under setting [38] was 65.7%; the viability, T/C under setting [39] was 63.7%; the viability, T/C under setting [40] was 63.9%; the viability, T/C under setting [41] was 58.1%; the viability, T/C under setting [42] is 69.8%.
On to `Cn1nccc1Nc1nccc(-c2ccn(C(CO)c3ccc(Cl)c(F)c3)c(=O)c2)n1` (centres undefined) + COc1c(OCCCN2CCOCC2)ccc2c3n(c(=NC(=O)c4cnc(N)nc4)nc12)CCN3, for which the half-maximal inhibitory concentration (IC50) runs as follows: under setting [1], greater than 10 µM; under setting [2], greater than 10 µM; under setting [3], 2.78 µM; under setting [4], 1.02 µM; under setting [5], 0.612 µM; under setting [6], 0.129 µM. Besides, the viability, T/C was 88.1% under setting [7]; 107% under setting [8]; 95.3% under setting [9]; 94.8% under setting [10]; 77.2% under setting [11]; 58.3% under setting [12]. In addition, the viability, T/C under setting [13] was 88.5%; the viability, T/C under setting [14] was 88.2%; the viability, T/C under setting [15] is 88.4%; the viability, T/C under setting [16] was 85.7%; the viability, T/C under setting [17] was 70.6%; the viability, T/C under setting [18] is 50.5%. In addition, the viability, T/C reads like this: under setting [19], 92.5%; under setting [20], 89.7%; under setting [21], 80.2%; under setting [22], 84.6%; under setting [23], 45.6%; under setting [24], 42.7%. Besides, the viability, T/C was 78% under setting [25]; 81% under setting [26]; 64.3% under setting [27]; 53.6% under setting [28]; 24% under setting [29]; 8.76% under setting [30]. Besides, the viability, T/C runs as follows: under setting [31], 74.7%; under setting [32], 78.5%; under setting [33], 58.8%; under setting [34], 43.8%; under setting [35], 7.08%; under setting [36], 3.11%. Also, the viability, T/C is, setting by setting: under setting [37], 54.9%; under setting [38], 51.5%; under setting [39], 42.6%; under setting [40], 29.2%; under setting [41], 10%; under setting [42], 5.49%.
Regarding `C[C@@H](NC(=O)c1ncnc(N)c1Cl)c1ncc(C(=O)Nc2cc(C(F)(F)F)c(Cl)cn2)s1`, the viability, T/C is, setting by setting: (compound 0.0316 µM) 89.7% [middle of 4 runs]; (compound 0.1 µM) 99.8% [middle of 4 runs]; (compound 0.316 µM) 95.5% [middle of 4 runs]; (compound 1 µM) 101% [middle of 4 runs]; (compound 3.16 µM) 103% [middle of 4 runs]; (compound 10 µM) 87.5% [middle of 4 runs]. The IC50 (curve of compound) is greater than 10 µM.
